Test results taken from publication PMC7340670, “Phase I study of TAS-115, a novel oral multi-kinase inhibitor, in patients with advanced solid tumors” (Investigational New Drugs, 2019).
“Also recorded” adds a separate entry of the source.

What was measured:
[1] = test system: patients with advanced solid tumors; assay: Phase I study (JapicCTI-132333): safety, tolerability, DLT, MTD, RP2D; format: in vivo
Method: This is an open-label, nonrandomized, dose-escalation study conducted at five sites in Japan. The study has three parts: a dose-escalation cohort using a traditional 3 + 3 design (part 1), a dosing schedule investigation cohort (part 2), and an expansion cohort to assess the safety at the MTD or lower doses among more patients (expansion part).
For each dose level in part 1, three to six patients were enrolled. DLTs were evaluated during the first cycle. […] The study drug was orally administered under empty stomach conditions (1 h before or 2 h after a meal) with a cup of water. […] In the expansion part, ≤MTD was investigated for exposure and safety.
All patients in parts 1 and 2 were required to be hospitalized for cycle 1 in order to observe AE. Patients continued to receive the study drug until disease progression or intolerable toxicity. […] The number of dose reductions was up to 2, and the minimum dose was 100 mg/day. […]

[2] = test system: recombinant VEGFR2; parameters: method as in PMID 24140932; settings: read-out: IC50 against recombinant VEGFR2; cited from earlier work
[3] = molecular target: 192-panel kinase; parameters: method as in PMID 24140932; settings: 192-panel kinase assay; read-out: IC50 for 53 (28%) kinases, including MET, AXL, c-kit, Src, PDGFR-alpha and –beta; cited from earlier work
[4] = Part 2 + Expansion part, 450 or 650 mg/day, 5-on/2-off (N = 61), patients (%)
[5] = part 2 and expansion part (N = 61)

## CNC(=O)c1cc2c(Oc3ccc(NC(=S)NC(=O)Cc4ccccc4)cc3F)ccnc2cc1OC [TAS-115]
[1]; [4]
  Treatment-related adverse events: Neutropenia, Any Grade: 21 (34.4)
  Treatment-related adverse events: Neutropenia, ≥ Grade 3: 15 (24.6)
  Treatment-related adverse events: Rash, Any Grade: 15 (24.6)
  Treatment-related adverse events: Rash, ≥ Grade 3: 1 (1.6)
  Treatment-related adverse events: Thrombocytopenia, Any Grade: 19 (31.1)
  Treatment-related adverse events: Thrombocytopenia, ≥ Grade 3: 9 (14.8)
  Treatment-related adverse events: Vomiting, Any Grade: 19 (31.1)
  Treatment-related adverse events: Vomiting, ≥ Grade 3: 1 (1.6)
[1]; SID, 5-on/2-off for 21 days per cycle, estimated
  recommended phase II dose (RP2D): 650 mg
[1]; any study part, during treatment or within 28 days of the last dose
  treatment-related death: No treatment-related death was observed
[1]; cohorts 650 mg and 800 mg in part 1
  patients with TRAEs leading to dose interruption: All the patients
[1]; expansion part
  Serious AEs: thirty one patients
  Serious TRAEs: decreased appetite (three patients), nausea (two patients), interstitial lung disease, rash, enterocolitis, fatigue, thrombocytopenia, and pyrexia (one patient each)
[1]; expansion part (650 mg), not considered related to TAS-115
  AEs resulted in death: hepatic failure, disease progression and respiratory failure occurred in one patient each
[1]; part 1
  Serious AEs: seven patients
  Serious TRAEs: tumor hemorrhage and decreased appetite (one patient, 650 mg each), thrombocytopenia (one patient, 800 mg)
  TRAEs that led to treatment discontinuation: rash (one patient, 800 mg)
[1]; part 1 (N = 21)
  Grade ≥3 TRAEs: 13 patients
[1]; part 1, 200 mg SID (N=3)
  Treatment-related adverse events: Any Events, Total: 3 (100.0) N (%)
  Treatment-related adverse events: Any Events, ≥ Grade 3: 1 (33.3) N (%)
  Treatment-related adverse events: Investigations, Total: 2 (66.7) N (%)
  Treatment-related adverse events: Investigations, ≥ Grade 3: 1 (33.3) N (%)
[1]; part 1, 300 mg SID (N=3)
  Treatment-related adverse events: Any Events, Total: 3 (100.0) N (%)
  Treatment-related adverse events: Any Events, ≥ Grade 3: 2 (66.7) N (%)
  Treatment-related adverse events: Investigations, Total: 2 (66.7) N (%)
  Treatment-related adverse events: Investigations, ≥ Grade 3: 2 (66.7) N (%)
[1]; part 1, 450 mg SID (N=3)
  Treatment-related adverse events: Any Events, Total: 3 (100.0) N (%)
  Treatment-related adverse events: Any Events, ≥ Grade 3: 2 (66.7) N (%)
  Treatment-related adverse events: Investigations, Total: 3 (100.0) N (%)
  Treatment-related adverse events: Investigations, ≥ Grade 3: 2 (66.7) N (%)
[1]; part 1, 650 mg SID
  treatment interruption during cycle 1: all patients who received 650 mg SID required treatment interruption; also recorded: all patients who received 650 mg SID had treatment interruption
[1]; part 1, 650 mg SID (N=6)
  Treatment-related adverse events: Any Events, Total: 6 (100.0) N (%)
  Treatment-related adverse events: Any Events, ≥ Grade 3: 5 (83.3) N (%)
  Treatment-related adverse events: Investigations, Total: 6 (100.0) N (%)
  Treatment-related adverse events: Investigations, ≥ Grade 3: 3 (50.0) N (%)
[1]; part 1, 800 mg SID (N=6)
  Treatment-related adverse events: Any Events, Total: 6 (100.0) N (%)
  Treatment-related adverse events: Any Events, ≥ Grade 3: 3 (50.0) N (%)
  Treatment-related adverse events: Investigations, Total: 4 (66.7) N (%)
  Treatment-related adverse events: Investigations, ≥ Grade 3: 1 (16.7) N (%)
[1]; part 1, 200–800 mg SID
  dose dependence of TRAEs: no dose-dependent increase in the incidence and grade of TRAEs was observed
[1]; part 1, 200–800 mg SID, 21 patients
  DLTs overall: Three dose-limiting toxicities; also recorded: three DLTs
[1]; part 1, SID, 21 days per cycle, granule formulation
  maximum tolerated dose (MTD): 650 mg
[1]; part 1, cycle 1, N = 6
  DLTs at 650 mg SID: grade 3 rash in one patient
  DLTs at 800 mg SID: grade 3 thrombocytopenia with bleeding and grade 3 rash each in one patient
[1]; part 2
  Serious AEs: two patients
  Serious TRAEs: peritonitis (one patient)
[1]; part 2, 650 mg SID 5-on/2-off
  treatment interruption in cycle 1: no patients required treatment interruption
[1]; part 2, cycle 1, six patients
  DLTs at 650 mg SID 5-on/2-off: No DLTs were observed; also recorded: no DLTs were reported
[1]; part 2 and expansion part
  TRAEs that led to treatment discontinuation: rash (two patients, 650 mg), pyrexia, peritonitis and neutropenia (one patient each, 650 mg)
[1]; [5]
  TRAE anemia, any grade: 34.4%
  TRAE decreased appetite, any grade: 42.6%
  TRAE fatigue, any grade: 44.3%
  TRAE hypophosphatemia, any grade: 32.8%
  TRAE increased ALT, any grade: 37.7%
  TRAE increased AST, any grade: 50.8%
  TRAE nausea, any grade: 42.6%
  TRAE neutropenia, any grade: 34.4%
  TRAE thrombocytopenia, any grade: 31.1%
  TRAE vomiting, any grade: 31.1%
  grade ≥3 TRAE anemia: 14.8%
  grade ≥3 TRAE hypophosphatemia: 21.3%
  grade ≥3 TRAE leukocytopenia: 11.5%
  grade ≥3 TRAE neutropenia: 24.6%
  grade ≥3 TRAE thrombocytopenia: 14.8%
[1]; part 2 and the expansion part
  frequency of TRAEs leading to dose interruption: approximately 77%
[1]; patients with advanced solid tumors, up to 650 mg 5-on/2-off
  tolerability: generally well tolerated
[2]
  IC50: 30 nM
[3]
  IC50: < 1000 nM
